Consider 89 compounds from a melting point compilation (Tetko et al.; mined from patent text by program, amines drawn as free bases though some values may be those of a salt).

A word on the melting point: it is the temperature, or range, at which the solid turns liquid.

`CCOC(=O)c1c(C)nn2c(-c3ccc(Cl)cc3Cl)c(C)ccc12` registered a melting point of 120 to 124 °C.
The compound `Nc1ccc(Sc2cc(F)cc(F)c2)c(Cl)c1` gave a melting point of 156 to 158 °C.
In the case of `NS(=O)(=O)c1c(Cl)nc2n1CCS2(=O)=O` it was 246 to 247 °C; in that of `O=C(Nc1ccc(Cl)cc1)NC1N=C(c2ccccc2)c2ccccc2N(CC(=O)OCc2ccccc2)C1=O` (centres undefined), 220 to 222 °C.
In the case of `CCNC1CCc2c(ccc(OC)c2OC)C1O` (centres undefined) it was 125 to 128 °C; in that of `Cc1nc(N2CCN(CC(C)C)C2=O)sc1C(=O)NCc1ccn(C)n1`, 158 to 161 °C.
`O=C(O)N1C=NN2c3cccnc3N(c3cccc(Cl)c3)CC12` (centres undefined): the melting point lay in the range of 213 to 216 °C.
In the case of `CCCCN(CCCC)c1cc(OC)c(C=Cc2cccs2)c(OC)c1`, the melting point turned out to be 90 °C.
`CC(C)C(CS(=O)(=O)c1ccc(-c2cccc(CNC(=O)c3nc4ccccc4c(=O)[nH]3)c2)cc1)N(O)C(N)=O` (centres undefined) returned a melting point of 193 to 195 °C.
For `CCCC1=NC(=NOC(=O)NC)SC1(C)CC` (centres undefined) the value was 124 to 126 °C; for `CCC1C(c2cccnc2Cl)=NOC1(C)O` (centres undefined), 71 °C; for `Cc1cnc(C2(CCCCN3CCC(N4Cc5ccccc5C4=O)CC3)c3ccccc3-c3ccccc32)s1`, 146 to 148 °C.
`Cc1nc(NC(=O)c2ccccc2)sc1C(=O)NCc1cccc(F)c1`: the melting point is 216 to 217 °C.
In turn, `CCn1c(C)c(C(=O)c2ccc([N+](=O)[O-])cc2C(=O)O)c2ccccc21` yielded a melting point of 203 to 204 °C.
`CCCc1c(OCCCCCCc2ccc(C(C)(C)C)c(O)c2O)ccc(C(=O)O)c1O` returned a melting point of 85 to 87 °C.
`C=CC(NC(C)=O)C(=O)NCc1ccccc1` (centres undefined): the melting point was in the range of 136 to 138 °C.
Regarding `CC1=Cc2cc(C#N)ccc2OC1(C)C`, the melting point was 55 °C.
As for `COc1cc(Nc2nc3cccc(-c4ccc(C(=O)N(C)C)cc4)c3o2)cc(OC)c1OC`, the melting point is more than 280 °C.
On to `C[C@@H](O)Cn1cnc2c(N)ncnc21`, for which the melting point fell in the range of 188 to 190 °C.
For `Cc1cn2nc(-c3ccccc3)nc2cc1N`, the melting point is more than 250 °C.
In turn, `CN1CC2CCCC(C1)C2=NO` showed a melting point of 111 to 112 °C.
For the compound `C=CCSc1nc(=O)n(C(=O)NC)s1`, the melting point was 110 °C.
`CC(C)C(Cl)C(=O)Nc1c(C(=O)CC(=O)Nc2ccccn2)cccc1C(F)(F)F` (centres undefined) came in with a melting point of 136 to 138 °C.
For the compound `CCOC(=O)C(Cl)=Cc1cc(-n2ncc(C(F)(F)F)c(C)c2=O)ccc1Cl`, the melting point lay within 164 to 167 °C.
In turn, `COC(=O)Nc1cc2c(=O)n(NS(C)(=O)=O)c(=O)[nH]c2cc1C(F)(F)F` gave a melting point of 232 to 240 °C.
As to `COc1cc(-c2cc(=O)c3ccc(OCC(O)CN4CCN(c5ccccc5)CC4)cc3o2)cc(OC)c1OC` (centres undefined), the melting point was in the range of 170 to 171 °C.
As for `COC(=O)c1c(O)c(-c2ccccc2)nn1C`, the melting point is 88 to 90 °C.
On to `COC(=O)c1cc2ccncc2c2sc3ccccc3c12`, for which the melting point was 174 to 176 °C.
`CN1C(=O)N(c2cccc(Cl)c2)C(=O)C1S(=O)(=O)c1ccc(F)cc1` (centres undefined) yielded a melting point of 170 to 173 °C.
In the case of `C#CCOc1ccc(CCNC(=O)C(O)Cc2ccc(C)cc2)cc1OC` (centres undefined) it was 85 °C.
On to `CC(C)Oc1ccc(NC(=S)NCc2ccsc2)cc1`, for which the melting point was in the range of 80.5 to 81.5 °C.
As to `Cc1cc2c(c3c1NC(=O)CC3)OC(CO)C2` (centres undefined), the melting point lay in the range of 172 to 173 °C.
The compound `CC1=C(S(C)(=O)=O)C(c2ccc(Cl)c([N+](=O)[O-])c2)C2=C(CCC2=O)N1` (centres undefined) registered a melting point of 232 °C.
Compound `CC(C)(C)OC(=O)N1CCC(Oc2ccccc2C(C)(C)C)C1` (centres undefined) displayed a melting point of 81 to 82 °C.
In the case of `CCCCCCCCCCCCc1ccccc1C(Sc1nc(CCC)c(C(=O)O)n1C)C(=O)O` (centres undefined), the melting point lay within 124 to 125 °C.
With `CCOC(=O)C1=C(COCCNc2nc(N)n[nH]2)NC(C)=C(C(=O)OC)C1c1cccc(C(F)(F)F)c1Cl` (centres undefined), the melting point lay within 144 to 145 °C.
For `COC(=O)N=C(NC(=O)NC1CCCCC1)OC`, the melting point is 79 to 80.5 °C.
`Cc1ncc2cc(-c3c(Cl)cccc3Cl)c(N=CN(C)C)nc2n1` gave a melting point of 236 to 238 °C.
Compound `COC(=O)C(C)Oc1ccc(N(C)c2nc3cc(Cl)ccc3s2)cc1` (centres undefined) gave a melting point of 120 °C.
Compound `COc1cccc(Oc2c(NS(=O)(=O)c3ccc(C(C)(C)C)cc3)ncnc2OCCOc2ncc(Br)cn2)c1` gave a melting point of 168 °C.
For `CCCC(=O)C1=C(O)CC(c2c(C)c(C)c(C)c3c2OC(C)C3C)CC1=O` (centres undefined) the value was 119 to 120 °C; for `O=C1c2ccccc2C2(c3ccc(Cl)cc3)NCCCCN12` (centres undefined), 134 to 135 °C; for `CCOCc1cc(OC)c(-c2ccc(C[C@H](NC(=O)c3c(Cl)cccc3Cl)C(=O)OCC)cc2)c(OC)c1`, 91 to 94 °C.
With `CC(C)(C)NC(=O)c1ccc(-c2ccc3nnn(Cc4ccc5ncccc5c4)c3n2)cc1F`, the melting point is 210 to 212 °C.
In the case of `CC(C)C1COC(=O)N1C(=O)CCCCOCc1ccccc1` (centres undefined) it was 133 °C.
Compound `CNS(=O)(=O)c1cc2c(c(C(=O)NC3CCN(C4CCCCC4)C3)c1)OCCO2` (centres undefined) came in with a melting point of 160 to 161 °C.
In turn, `CCOCCCOc1ccc(-c2ccc3c(c2)C=C(C(=O)Nc2ccc(CN(C)C4CCOCC4)cc2)CCS3(=O)=O)cc1` had a melting point of 214 to 215 °C.
`CC(C(=O)NCC(F)(F)C(F)(F)F)C(=O)NC1C(=O)N(C)c2cc(F)ccc2OC1C` (centres undefined) came in with a melting point of 126 to 134 °C.
`CCCCCNC(=O)CC(=O)O`: the melting point lay within 67.5 to 68.5 °C.
In the case of `CC(C)NC(=O)N1C2=NC(C)(C)N(C(C)C)C(=O)N2c2ccccc21` it was 80 to 89 °C.
Compound `CCCCOc1c(CNC(=O)OC(C)(C)C)n(CC(C)C)c(=O)c2ccc(-c3nc(C(N)=O)cs3)cc12` registered a melting point of 195 to 196 °C.
For `O=C1N[C@@H](c2ccccc2)[C@H]1O` the value was 175 to 180 °C; for `Nc1ncc(Cl)nc1Br`, 102 to 105 °C.
Take `CN(C)S(=O)(=O)NCC(C)(C)N`: the melting point is 77 to 78 °C.
Take `CCc1sc(NC(=O)C2=C(O)c3ccc4ccccc4c3S(=O)(=O)N2C)nc1C`: the melting point is 253 to 255 °C.
For `S=C1CC2Cc3ccc(Cl)cc3C2N1` (centres undefined) the value was 225 to 227 °C; for `CCCCCCCCCCCCCCCCCCCCOC(=O)P(=O)(OC)OC`, 53 to 54 °C.
Consider `COc1ccc(CC(=Nc2ccccc2)NC(=S)NCCO)cc1`, for which the melting point fell in the range of 117 to 119 °C.
In the case of `Nc1nc2c(s1)CCN(CC=Cc1ccccc1F)CC2` it was 96 to 102 °C; in that of `CCCCCCCCCCCCCCCCCCN(CCCCCCCCCCCCCCCCCC)CCCNC=O`, 42 to 46 °C; in that of `O=S(=O)(Nc1cccc(Cl)c1)c1ccc(Nc2nc(OCC3CCCCC3)c3nc[nH]c3n2)cc1`, 248 to 249 °C.
For `COc1ccc(C2CCc3cc(OC)ccc3C2CO)cc1` (centres undefined), the melting point worked out at 84 °C.
In turn, `Nc1oc2ccc([N+](=O)[O-])cc2c(=O)c1C=O` showed a melting point of 228 to 229 °C.
As to `CC(=O)c1oc2ccccc2c1NC(=O)/C(C#N)=C(/C)O`, the melting point fell in the range of 206 to 208 °C.
In turn, `O=C(O)[C@@H]1CCCN1C(=O)CCBr` came in with a melting point of 83 to 85 °C.
For the compound `COC(=O)CCCCCCCCCCCCCCCNc1ccc(C(=O)OC)cc1`, the melting point fell in the range of 92 to 93 °C.
`CCCCN(CCCC)p1oc2c(C(C)(C)C)cc(C(C)(C)C)cc2c2cc(C(C)(C)C)cc(C(C)(C)C)c2o1` had a melting point of 140 °C.
For `COC(=O)c1ccc(F)cc1SC(=O)N(C)C` the value was 190 °C; for `CS(=O)(=O)c1cnc(-c2nn(Cc3ccccc3F)c3ncccc23)nc1N`, 272 °C.
In turn, `Cc1c(C)c2c(c(C)c1O)C(=O)CC(COc1ccc(CC3SC(=O)NC3=O)cc1)O2` (centres undefined) came in with a melting point of 249 to 252 °C.
Regarding `O=C1c2cccc3c(Br)ccc(c23)C(=O)N1O`, the melting point lay in the range of 248 to 251 °C.
For `CCCOC(=O)C1=C(C)NC(CO)=C(C(=O)OC)C1c1ccccc1C#N` (centres undefined), the melting point is 149 to 152 °C.
Regarding `ClCc1coc(-c2ccc3oc(-c4ccccc4)nc3c2)n1`, the melting point lay within 194 to 195 °C.
As for `CCCS(=O)(=O)Cc1ccc(C(=O)Nc2ccc3cc(CN4CCCC4)cnc3c2C)cc1`, the melting point came out at 191 °C.
With `O=C(NC1=Nc2cc(OCCn3cccc3)ccc2C2=NCCN12)c1cccnc1`, the melting point worked out at 209 °C.
Turning to `O=C1N=C(N2CCCCCCC2)SC1=Cc1cccc(-c2ccc(O)c(C34CC5CC(CC(C5)C3)C4)c2)c1`, the melting point lay within 284 to 286 °C.
Compound `O=C(c1ccc(O)cc1)c1c(-c2ccccc2)sc2ccccc12` had a melting point of 163 to 165 °C.
With `N#CCc1c(-c2ccccc2)[nH]c2nccnc12`, the melting point lay in the range of 247 to 248 °C.
For `COC(=O)C1(C)CCN(c2cccc(-c3cnc4[nH]cc(C(=O)C(C)(C)C)c4n3)c2)C1` (centres undefined), the melting point is 198 to 200 °C.
`Nc1ccccc1CS(=O)c1nc2ccccc2[nH]1` (centres undefined) showed a melting point of 164 to 165 °C.
`COc1ccc(C2(c3ccc(OC)cc3)C(c3ccccc3)C2(Cl)Cl)cc1` (centres undefined): the melting point was 124 to 125 °C.
With `CCC(=O)n1c(=O)n(-c2ccc([N+](=O)[O-])cc2)c(=O)n1C(=O)CC`, the melting point was 140 to 142 °C.
For `CCCN(c1nc(-c2ccc(OC)cc2Cl)c(C)s1)c1cc([N+](=O)[O-])ccc1OC` the value was 97 °C; for `O=Cc1c(Br)nc(-c2ccccc2)n1Cc1cc2c(cc1Cl)OCO2`, 148 °C; for `O=C(c1cc(=O)c2cc(O)ccc2[nH]1)N1CCC(Cc2ccc(Cl)cc2)CC1`, 194 °C.
In turn, `CC(O)(c1ccc(Oc2ccccc2)cc1)C1SCSCS1` (centres undefined) showed a melting point of 70 to 71 °C.
As for `OCCOc1ccc2c(-c3ccccc3F)noc2c1Cl`, the melting point was determined as 112 °C.
With `Nc1ccc2c(ccn2-c2ccncc2)c1`, the melting point fell in the range of 149 to 154 °C.
In turn, `CC(=O)NCCCCC(NC(C)=O)C(=O)O` (racemic) yielded a melting point of 138 to 139 °C.
